The assay has as its target T1, Calmodulin derived from bovine (Bos taurus, UniProt P62157).
T1 construct: purchased Sigma
As to the kind of experiment: Tension and elasticity change of calmodulin film detected by mechanochemical sensor (Example 1). In kind it is binding. To be noted: FIG. 1; for isotropic tension of the calmodulin film: 10 mM Hepes buffer pH7.4 containing 0.1 M NaCl, flow 0.1 to 0.2 mL/min. The method, then: Calmodulin derived from bovine (Sigma) was dissolved into purified water at a concentration of 2 mg/ml. This solution was sprayed under dry air using an electrospry device described in WO 2002-511792 or an immobilzing device described in Japanese Patent Publication No. 2003-136005. The solution was permeated through a mask with holes of 400 μm in length and 800 μm in width, and then a film was prepared on 1.2% polyvinylpyrrolidone using an electrospray method (the EDS method). The resulting film was placed on an apparatus having a mechanochemical sensor which was described in WO 2002-503332 or U.S. Pat. Publication No. 6,033,913, and it was immersed into 10 mM Hepes buffer solution pH7.4 (hereinafter referred to as “the buffer solution”) containing 0.1 M NaCl. The buffer solution was passed through the film existing on the detecting apparatus at the flow rate of 0.1 to 0.2 mL/min, in order to stabilize the tension of the sample film. Thereafter CaCl2 solution dissolved in said buffer solution was passed through at the same flow rate to detect changes in tension and elasticity (FIG. 1).
A place where the horizontal line (indicating the initial state) uprises means a point where tension is given to the sample film, and compliance is detected where the line oscillates. […] Meanwhile, for example, following review can be refereed to the conformational change of calmodulin, (Vetter S. W. and Leclerc, E. (2003). Novel aspects of calmodulin target recognition and activation. Eur. J. Biochem. 270, 404-414).

For `[Ca+2].[Cl-].[Cl-]` [CaCl2], the “isotropic tension of the calmodulin film” value is “remarkably increases”. Further, where the note is “buffer solution passed after CaCl2”, the “reversibility of the effect on the film when restored by the buffer solution” value is recorded as “reversible”.
Regarding `O=C(O)CN(CCN(CC(=O)O)CC(=O)O)CC(=O)O` [EDTA], the “isotropic tension of the calmodulin film” value is reported as “further decreases”.

(Values after patent US20080115593A1, “Method for Detecting Conformational Change of Calmodulin, a Method for Screening a Substance Having an Activity that Affects to Conformational Change of Calmodulin” (FUENCE CO., LTD., priority 2004, published 2008).)
